Test results: patent US11629139B2 (priority 2017, dated 2023)
Like-named read-outs stand apart in the source and are kept apart here.

Tested on: vesicular stomatitis virus particles (VSV) pseudotyped with EboV Zaire GP
Experiment: microbe, parasite or virus in culture
Format: cell-based

**Q.** `Nc1ccc(Cl)cc1CN1CCN(C(=O)CNC(=O)C2C3CC(F)(F)CC32)CC1` [Compound 1386, (1R,5S,6r)-N-(2-(4-(2-Amino-5-chlorobenzyl)piperazin-1-yl)-2-oxoethyl)-3,3-difluorobicyclo[3.1.0]hexane-6-carboxamide] was tested. Which IC50 (Vesicular stomatitis virus) did it give?
**A.** 4400 nM

**Q.** With `Nc1ccc(CN2CCN(C(=O)CNC(=O)CC3CCC(F)(F)CC3)CC2)cc1Cl` [Compound 1387, N-(2-(4-(4-Amino-3-chlorobenzyl)piperazin-1-yl)-2-oxoethyl)-2-(4,4-difluorocyclohexyl)acetamide] as the molecule, how does the IC50 (Vesicular stomatitis virus) read?
**A.** > 5000 nM

**Q.** For `Nc1cc(Cl)cc(CN2CCN(C(=O)CNC(=O)C3CC34CCC(F)(F)CC4)CC2)c1` (centres unmarked) [Compound 1388, N-(2-(4-(3-Amino-5-chlorobenzyl)piperazin-1-yl)-2-oxoethyl)-6,6-difluorospiro[2.5]octane-1-carboxamide], which IC50 (Vesicular stomatitis virus) is on record?
**A.** 500 nM

**Q.** Which IC50 (Vesicular stomatitis virus) does the source give for `Nc1ccc(CN2CCN(C(=O)CNC(=O)C3CC34CCC(F)(F)CC4)CC2)cc1Cl` (centres unmarked) [Compound 1390, N-(2-(4-(4-Amino-3-chlorobenzyl)piperazin-1-yl)-2-oxoethyl)-6,6-difluorospiro[2.5]octane-1-carboxamide] here?
**A.** 1100 nM

**Q.** `CNc1ccc(Cl)cc1CN1CCN(C(=O)CNC(=O)C2CC23CCC(F)(F)CC3)CC1` (centres unmarked) [Compound 1391, N-(2-(4-(5-Chloro-2-(methylamino)benzyl)piperazin-1-yl)-2-oxoethyl)-6,6-difluorospiro[2.5]octane-1-carboxamide] was tested. Which IC50 (Vesicular stomatitis virus) did it give?
**A.** 80 to 260 nM

**Q.** `O=C(Nc1ccccc1)Nc1ncc(Cl)cc1CN1CCN(C(=O)CNC(=O)C2CC23CCC(F)(F)CC3)CC1` (centres unmarked) [Compound 1392, N-(2-(4-((5-Chloro-2-(3-phenylureido)pyridin-3-yl)methyl)piperazin-1-yl)-2-oxoethyl)-6,6-difluorospiro[2.5]octane-1-carboxamide] was tested. Which IC50 (Vesicular stomatitis virus) did it give?
**A.** 1000 nM

**Q.** For `O=C(Nc1ncc(Cl)cc1CN1CCN(C(=O)CNC(=O)C2CC23CCC(F)(F)CC3)CC1)NC1CC1` (centres unmarked) [Compound 1393, N-(2-(4-((5-Chloro-2-(3-cyclopropylureido)pyridin-3-yl)methyl)piperazin-1-yl)-2-oxoethyl)-6,6-difluorospiro[2.5]octane-1-carboxamide], which IC50 (Vesicular stomatitis virus) is on record?
**A.** > 5000 nM

**Q.** `Nc1ccc(C2CC2)cc1CN1CCN(C(=O)CNC(=O)C2CC23CCC(F)(F)CC3)CC1` (centres unmarked) [Compound 1397] was tested. Which IC50 (Vesicular stomatitis virus) did it give?
**A.** 2400 to 4200 nM

**Q.** With `O=C(NCC(=O)N1CCN(Cc2cc(Cl)ccc2O)CC1)C1CC12CCC(F)(F)CC2` (centres unmarked) [Compound 1398, N-(2-(4-(5-Chloro-2-hydroxybenzyl)piperazin-1-yl)-2-oxoethyl)-6,6-difluorospiro[2.5]octane-1-carboxamide] as the molecule, how does the IC50 (Vesicular stomatitis virus) read?
**A.** 75 to 320 nM

**Q.** With `CCC1(CC)CC1C(=O)NCC(=O)N1CCN(Cc2cc(Cl)ccc2O)CC1` (centres unmarked) [Compound 1399, N-(2-(4-(5-Chloro-2-hydroxybenzyl)piperazin-1-yl)-2-oxoethyl)-2,2-diethylcyclopropane-1-carboxamide] as the molecule, how does the IC50 (Vesicular stomatitis virus) read?
**A.** 220 nM

**Q.** How did the IC50 (Vesicular stomatitis virus) turn out when `O=C(CC1CCC(F)(F)CC1)NCC(=O)N1CCN(Cc2cc(Br)ccc2O)CC1` [Compound 1400, N-(2-(4-(5-Bromo-2-hydroxybenzyl)piperazin-1-yl)-2-oxoethyl)-2-(4,4-difluorocyclohexyl)acetamide] was run?
**A.** 670 nM

**Q.** Which IC50 (Vesicular stomatitis virus) does the source give for `O=C(CC1CCC(F)(F)CC1)NCC(=O)N1CCN(Cc2cc(Cl)cc(Cl)c2O)CC1` [Compound 1401, N-(2-(4-(3,5-Dichloro-2-hydroxybenzyl)piperazin-1-yl)-2-oxoethyl)-2-(4,4-difluorocyclohexyl)acetamide] here?
**A.** 3700 nM

**Q.** For `O=C(CC1CCC(F)(F)CC1)NCC(=O)N1CCN(Cc2cc(Cl)cc(F)c2O)CC1` [Compound 1402, N-(2-(4-(5-Chloro-3-fluoro-2-hydroxybenzyl)piperazin-1-yl)-2-oxoethyl)-2-(4,4-difluorocyclohexyl)acetamide], which IC50 (Vesicular stomatitis virus) is on record?
**A.** 2900 nM

**Q.** For `O=C(CC1CCC(F)(F)CC1)NCC(=O)N1CCN(Cc2cc(Cl)ccc2O)CC1` [Compound 1403, N-(2-(4-(5-Chloro-2-hydroxybenzyl)piperazin-1-yl)-2-oxoethyl)-2-(4,4-difluorocyclohexyl)acetamide], which IC50 (Vesicular stomatitis virus) is on record?
**A.** 190 to 730 nM

**Q.** Which IC50 (Vesicular stomatitis virus) does the source give for `O=C(NCC(=O)N1CCN(Cc2cc(Cl)cc(F)c2O)CC1)C1CC12CCC(F)(F)CC2` (centres unmarked) [Compound 1404, N-(2-(4-(5-chloro-3-fluoro-2-hydroxybenzyl)piperazin-1-yl)-2-oxoethyl)-6,6-difluorospiro[2.5]octane-1-carboxamide] here?
**A.** 630 nM

**Q.** `O=C(NCC(=O)N1CCN(Cc2cc(Cl)cc3cccnc23)CC1)C1CC12CCC(F)(F)CC2` (centres unmarked) [Compound 1405, N-(2-(4-((6-Chloroquinolin-8-yl)methyl)piperazin-1-yl)-2-oxoethyl)-6,6-difluorospiro[2.5]octane-1-carboxamide] was tested. Which IC50 (Vesicular stomatitis virus) did it give?
**A.** 70 to 260 nM

**Q.** For `O=C(CC1CCC(F)(F)CC1)NCC(=O)N1CCN(Cc2cc(Cl)cc3cn[nH]c23)CC1` [Compound 1406, N-(2-(4-((5-Chloro-JH-indazol-7-yl)methyl)piperazin-1-yl)-2-oxoethyl)-2-(4,4-difluorocyclohexyl)acetamide], which IC50 (Vesicular stomatitis virus) is on record?
**A.** 460 nM

**Q.** With `Nc1c(Cl)cccc1CN1CCN(C(=O)CNC(=O)C2CC23CCC(F)(F)CC3)CC1` (centres unmarked) [Compound 1407, N-(2-(4-(2-Amino-3-chlorobenzyl)piperazin-1-yl)-2-oxoethyl)-6,6-difluorospiro[2.5]octane-1-carboxamide] as the molecule, how does the IC50 (Vesicular stomatitis virus) read?
**A.** 230 to 500 nM

**Q.** Which IC50 (Vesicular stomatitis virus) does the source give for `O=C(CC1CCC(F)(F)CC1)NCC(=O)N1CCN(Cc2ccc(F)c(Cl)c2F)CC1` [Compound 1408] here?
**A.** 4000 nM

**Q.** With `Nc1ccc(Cl)cc1CN1CCN(C(=O)CNC(=O)C2CC23CCC3)CC1` (centres unmarked) [Compound 1409, N-(2-(4-(2-Amino-5-chlorobenzyl)piperazin-1-yl)-2-oxoethyl)spiro[2.3]hexane-1-carboxamide] as the molecule, how does the IC50 read?
**A.** 2900 nM

**Q.** How did the IC50 turn out when `Nc1ccc(Cl)cc1CN1CCN(C(=O)CNC(=O)C2CC23CCCC3)CC1` (centres unmarked) [Compound 1410, N-(2-(4-(2-Amino-5-chlorobenzyl)piperazin-1-yl)-2-oxoethyl)spiro[2.4]heptane-1-carboxamide] was run?
**A.** 220 to 490 nM

**Q.** Which IC50 (Vesicular stomatitis virus) does the source give for `CCC1(CC)CC1C(=O)NCC(=O)N1CCN(Cc2cc(Cl)ccc2N)CC1` (centres unmarked) [Compound 1411, N-(2-(4-(2-amino-5-chlorobenzyl)piperazin-1-yl)-2-oxoethyl)-2,2-diethylcyclopropane-1-carboxamide] here?
**A.** 140 nM

**Q.** Which IC50 (Vesicular stomatitis virus) does the source give for `O=C(NCC(=O)N1CCN(Cc2cccc3cccnc23)CC1)C1CC12CCC(F)(F)CC2` (centres unmarked) [Compound 1420, 6,6-Difluoro-N-(2-oxo-2-(4-(quinolin-8-ylmethyl)piperazin-1-yl)ethyl)spiro[2.5]octane-1-carboxamide] here?
**A.** 490 nM

**Q.** Which IC50 (Vesicular stomatitis virus) does the source give for `O=C(NCC(=O)N1CCN(Cc2cc(Cl)cc3cn[nH]c23)CC1)C1CC12CCC(F)(F)CC2` (centres unmarked) [Compound 1421, N-(2-(4-((5-Chloro-JH-indazol-7-yl)methyl)piperazin-1-yl)-2-oxoethyl)-6,6-difluorospiro[2.5]octane-1-carboxamide] here?
**A.** > 5000 nM

**Q.** How did the IC50 (Vesicular stomatitis virus) turn out when `O=C(CC1CCC(F)(F)CC1)NCC(=O)N1CCN(Cc2cc(Cl)cc3cccnc23)CC1` [Compound 1422, N-(2-(4-((6-Chloroquinolin-8-yl)methyl)piperazin-1-yl)-2-oxoethyl)-2-(4,4-difluorocyclohexyl)acetamide] was run?
**A.** 360 nM

**Q.** `CC1(CC(=O)NCC(=O)N2CCN(Cc3cc(Cl)cc4cccnc34)CC2)CCOCC1` [Compound 1424] was tested. Which IC50 (Vesicular stomatitis virus) did it give?
**A.** 2800 nM

**Q.** Which IC50 (Vesicular stomatitis virus) does the source give for `O=C(NCC(=O)N1CCN(Cc2cc(Cl)ccc2O)CC1)C1CC1c1ccc(F)cc1` (centres unmarked) [Compound 1425, N-(2-(4-(5-Chloro-2-hydroxybenzyl)piperazin-1-yl)-2-oxoethyl)-2-(4-fluorophenyl)cyclopropane-1-carboxamide] here?
**A.** 3400 nM

**Q.** With `O=C(CC1CCC(F)(F)CC1)NCC(=O)N1CCN(Cc2cccc3ccncc23)CC1` [Compound 1427] as the molecule, how does the IC50 (Vesicular stomatitis virus) read?
**A.** 2450 nM

**Q.** `O=C(CC1CCC(F)(F)CC1)NCC(=O)N1CCN(Cc2cccc3ncccc23)CC1` [Compound 1428, 2-(4,4-Difluorocyclohexyl)-N-(2-oxo-2-(4-(quinolin-5-ylmethyl)piperazin-1-yl)ethyl)acetamide] was tested. Which IC50 (Vesicular stomatitis virus) did it give?
**A.** > 5000 nM

**Q.** How did the IC50 (Vesicular stomatitis virus) turn out when `O=C(CC1CCC(F)(F)CC1)NCC(=O)N1CCN(Cc2cc(F)cc3cccnc23)CC1` [Compound 1429, 2-(4,4-Difluorocyclohexyl)-N-(2-(4-((6-fluoroquinolin-8-yl)methyl)piperazin-1-yl)-2-oxoethyl)acetamide] was run?
**A.** 950 nM

**Q.** `Cc1ccc(Cl)cc1CN1CCN(C(=O)CNC(=O)C2CC23CCC(F)(F)CC3)CC1` (centres unmarked) [Compound 1431, N-(2-(4-(5-Chloro-2-methylbenzyl)piperazin-1-yl)-2-oxoethyl)-6,6-difluorospiro[2.5]octane-1-carboxamide] was tested. Which IC50 (Vesicular stomatitis virus) did it give?
**A.** 550 nM

**Q.** How did the IC50 (Vesicular stomatitis virus) turn out when `O=C(CC1CCC(F)(F)CC1)NCC(=O)N1CCN(Cc2cc(Cl)cc(Oc3ccncc3)c2)CC1` [Compound 1432, N-(2-(4-(3-Chloro-5-(pyridin-4-yloxy)benzyl)piperazin-1-yl)-2-oxoethyl)-2-(4,4-difluorocyclohexyl)acetamide] was run?
**A.** 185 nM

**Q.** Which IC50 (Vesicular stomatitis virus) does the source give for `[2H]C([2H])(c1cc(Cl)cc2cc[nH]c12)N1CCN(C(=O)CNC(=O)CC2CCC(F)(F)CC2)CC1` [Compound 1433, N-(2-(4-((5-Chloro-JH-indol-7-yl)methyl-d2)piperazin-1-yl)-2-oxoethyl)-2-(4,4-difluorocyclohexyl)acetamide] here?
**A.** > 5000 nM

**Q.** With `COC(=O)c1cccc(-c2cc(Cl)cc(CN3CCN(C(=O)CNC(=O)CC45CC6CC(C4)C(C6)C5)CC3)c2)c1` [Compound 1441] as the molecule, how does the IC50 (Vesicular stomatitis virus) read?
**A.** 248 nM

**Q.** With `CC(=O)N1CCC(Oc2cc(F)cc(CN3CCN(C(=O)CNC(=O)C4CC45CCC(F)(F)CC5)CC3)c2)CC1` (centres unmarked) [Compound 1442] as the molecule, how does the IC50 (Vesicular stomatitis virus) read?
**A.** 600 nM

**Q.** Which IC50 (Vesicular stomatitis virus) does the source give for `CS(=O)(=O)c1ccc(COc2ccc(F)cc2CN2CCN(C(=O)CNC(=O)CC34CC5CC(CC(C5)C3)C4)CC2)cc1` [Compound 1443] here?
**A.** 4.5 nM

**Q.** With `O=C(CC12CC3CC(C1)C(C3)C2)NCC(=O)N1CCN(Cc2cc(F)ccc2OCc2ccc3nonc3c2)CC1` [Compound 1444] as the molecule, how does the IC50 (Vesicular stomatitis virus) read?
**A.** 25 nM

**Q.** With `CC(=O)Nc1ccc(COc2ccc(F)cc2CN2CCN(C(=O)CNC(=O)CC34CC5CC(C3)C(C5)C4)CC2)cc1` [Compound 1445] as the molecule, how does the IC50 (Vesicular stomatitis virus) read?
**A.** 710 nM

**Q.** How did the IC50 (Vesicular stomatitis virus) turn out when `O=C(CC1CCC(F)(F)CC1)NCC(=O)N1CCN(Cc2cccc(Oc3ccccn3)c2)CC1` [Compound 1451] was run?
**A.** > 5000 nM

**Q.** How did the IC50 (Vesicular stomatitis virus) turn out when `CC(=O)N1CCCC(Oc2cc(F)cc(CN3CCN(C(=O)CNC(=O)C4CC45CCC(F)(F)CC5)CC3)c2)C1` (centres unmarked) [Compound 1453] was run?
**A.** > 5000 nM

**Q.** With `CS(=O)(=O)c1ccc(COc2ccc(F)cc2CN2CCN(C(=O)CNC(=O)CC3CCC(F)(F)CC3)CC2)cc1` [Compound 1455] as the molecule, how does the IC50 (Vesicular stomatitis virus) read?
**A.** 40 nM
